Data on two molecules can be found in patent publication US8835433B2, “Optically pure diastereomers of 10-Propargyl-10-deazaaminopterin and methods of using same for the treatment of cancer” (Allos Therapeutics, Inc., priority 2010, dated 2014).

Read-outs that look alike come from different tables or passages of the source.

The test system of series [1] is SKBR-3 (breast cancer) human tumor cell line. The experiment in a line: MTS growth inhibition assay, SKBR-3. The format is cell-based. As to conditions: SK-BR-3, SK-BR3 (breast), 3 h treatment, 72 h recovery. As for the experimental part: (§1) The agents PDX, PDX-10a, PDX-10b, were evaluated for growth inhibitory activity against, MDA-MB-435, SKBR-3 and NCI-H460 human tumor cell lines. Growth inhibition was measured by MTS assay following three hours of continuous treatment and a seventy-two hour recovery incubation. The purpose of these studies was to determine the cytotoxic activity of the compounds in the tumor cell lines studies studied.
Materials and Methods. Preparation of PDX-10a and PDX-10b was performed as discussed in Examples 1-2. The PDX compounds were diluted in dimethylsulfoxide (DMSO) at a concentration of 20 mM. From this solution a stock solution of 2 mM was made by dilution with phosphate-buffered saline (PBS). This 2 mM stock solution in 10% DMSO/90% PBS was used to make 2× concentrations of the titration series in cell growth medium which was added to the cell cultures in a 1:1 ratio to make 1× concentrations. Cell lines—The human tumor cell lines: MDA-MB-435 (melanoma), SKBR-3 (breast cancer) and NCI-H460 (lung cancer) were cultured in RPMI medium (RPMI; Nova Tech, Grand Island, N.Y.) containing ten percent dialyzed fetal bovine serum (FBS; Nova Tech). […]
Single Agent Pulse Studies—Treatment with test agents or standard agents (controls) was initiated 24 hours after plating cells (Day 1). […] Following incubation, the viable cell number was quantified by the MTS assay described below. […]
MTS Assay—Cell viability was determined using the MTS assay. […] Formazan production was quantified by spectrophotometric measurement at 490 nm and is proportional to viable cell number. […] Absorbance (OD) values were measured using a Dynex HD microplate reader at a single wavelength of 490 nm.
Data Analysis—Data from each experiment was collected and expressed as OD490 versus the log10 of the test agent concentration. […]
(Tetrazolium dyes change colour on reduction, which living cells bring about.)

For series [2], the system named is NCI-H460 (lung cancer) human tumor cell line. The series is described as follows: MTS growth inhibition assay, NCI-H460. It is filed as cell-based. The method, then: as §1
Materials and Methods. Preparation of PDX-10a and PDX-10b was performed as discussed in Examples 1-2. The PDX compounds were diluted in dimethylsulfoxide (DMSO) at a concentration of 20 mM. From this solution a stock solution of 2 mM was made by dilution with phosphate-buffered saline (PBS). This 2 mM stock solution in 10% DMSO/90% PBS was used to make 2× concentrations of the titration series in cell growth medium which was added to the cell cultures in a 1:1 ratio to make 1× concentrations. Cell lines—The human tumor cell lines: MDA-MB-435 (melanoma), SKBR-3 (breast cancer) and NCI-H460 (lung cancer) were cultured in RPMI medium (RPMI; Nova Tech, Grand Island, N.Y.) containing ten percent dialyzed fetal bovine serum (FBS; Nova Tech). Once cells reached seventy percent confluency, they were trypsinized and resuspended in an alternate media (RPMI containing five percent dialyzed FBS (Hyclone, Logan, Utah). One day prior to treatment (Day 0), cultures were suspended at a concentration of 1−7.5×10^4 cell/ml and 100 μl aliquots were plated into each well of a 96-well microtiter plate at a final concentration of 1×10^3-7.5×10^3 cells/well. Cells were incubated for 24 hours at 37° C. prior to exposure with agents.
Test Agents—racemic PDX, and individual diastereomers PDX-10a and PDX-10b were prepared as described above. Cells were treated 24 hours after plating (Day 1) with vehicle (media) alone or the above test agents for three hours at concentrations between 3 μM and 10 μM.
Single Agent Pulse Studies—Treatment with test agents or standard agents (controls) was initiated 24 hours after plating cells (Day 1). Cells were incubated at 37° C. with each of the test agents or a “chemococktail” (positive control) consisting of 215 μM Etoposide, 20 μM Taxol, 38.5 nM Velcade at final concentration for three hours. Following treatment, drug was removed, growth media added, and cells incubated at 37° C. for 72 hours. Following incubation, the viable cell number was quantified by the MTS assay described below. Experiments were repeated twice at the same concentrations. Results from these studies were used to calculate an IC50 value (concentration of drug that inhibits cell growth by 50% of the vehicle) for each compound. IC50 values were generated with Prizm software.
MTS Assay—Cell viability was determined using the MTS assay. This colorimetric procedure measures conversion of the MTS reagent (a tetrazolium salt) to formazan by living cells. Formazan production was quantified by spectrophotometric measurement at 490 nm and is proportional to viable cell number. For these studies, cells were cultured and treated as listed above. At the end of the treatment, 20 μl MTS tetrazolium (1.9 mg/ml in PBS, pH 6.0) was added to the cells for 1 hour at 37° C. Absorbance (OD) values were measured using a Dynex HD microplate reader at a single wavelength of 490 nm.
Data Analysis—Data from each experiment was collected and expressed as OD490 versus the log10 of the test agent concentration. Using the statistical analysis package of the Prizm analytical software (GraphPad, San Diego, Calif.), a non-linear curve fit was performed which yielded the 50% inhibition concentration of the test article (IC50).

Series [3] is described as follows: Pharmacokinetics in dog (PDX-T-07054-D). It is filed as in vivo. As to conditions: for clearance / Vd / half-life: dog, plasma, 0.7 mg/kg; for half-life: read-out: t1/2 term. The method, then: Bioanalytical methods were developed and validated for quantitation of the 2 pralatrexate C10 diastereomers (PDX-10a and PDX-10b) in human, rat and dog plasma and urine. The basic bioanalytical method involves extraction of PDX-10a and PDX-10b from the matrix utilizing C18 solid-phase extraction (SPE) cartridges followed by derivatization (methylation with acetyl chloride) of the diastereomers for separation detection. The derivatized extracts are injected on a chiral high-performance liquid chromatography (HPLC) column for quantitation of each diastereomer by liquid chromatography-tandem mass spectrometry (LC/MS/MS). The lower limit of quantitation (LLOQ) for both diastereomers in plasma and urine matrices was 0.5 ng/mL. […]

The subject of another series is cancer cell lines. The series is described as follows: In vitro cytotoxicity in additional solid and heme cancer cell lines. The format is cell-based. The note with it: some / other cell lines (T-cell lymphoma, multiple myeloma, others); Example 5. The method, then:
Additional cancer cell lines can be tested in accordance with the methods outlined in Example 3. Cancer cell lines for T-cell lymphoma, multiple myeloma, hematologic malignancies, head and neck cancer, cancer of the gastrointestinal tract, ovarian cancer, and osteosarcoma are tested with PDX-10a and PDX-10b.

The next series has as its system tumor xenotransplant. The experiment in a line: In vivo xenograft models with solid tumors and lymphomas. As to conditions: nude female mice, IP injection; some / other explants; Example 6. The method, then: Nude female mice are inoculated subcutaneously in the right flank with appropriate tumor cells as discussed in Example 5 to establish the xenotransplant. Tumor volume and body weights are monitored twice a week. Once the established tumor reaches 75-150 mm^3 the mice are randomized to a treatment group, either control, racemic PDX, PDX-10a, or PDX-10b. Treatments are administered by IP injection. Phosphate buffered saline is administered as control vehicles.

The subject of series [4] is type II collagen arthritis. The experiment in a line: Type II collagen arthritis rat model. It is filed as in vivo. The note with it: female Lewis rats, 0.075, 0.05 or 0.025 mg/kg qd; some / other components/aspects of the arthritis; Example 8. As for the experimental part:
Female Lewis rats with 17-day developing type II collagen arthritis are treated once daily (qd), orally or intravenously, on days 0-16 of the study with saline vehicle (qd), with Methotrexate (MTX, 0.075, 0.05, or 0.025 mg/kg), or racemic PDX, PDX-10a and PDX-10b (0.075, 0.05, or 0.025 mg/kg). Animals are terminated on study day 17. Efficacy evaluation is based on ankle caliper measurements, expressed as area under the curve (AUC), and terminal hind paw weights, and histopathologic evaluation of ankles and knees.

A short description of series [5]: Population pharmacokinetics in cancer patients after racemic PDX. As to conditions: 3-compartment model, 154 cancer patients, IV racemic PDX.
Method: Population (POP) pharmacokinetic (PK) parameters and effects of covariate factors (COV) for PDX-10a and PDX-10b after administration of racemic PDX in cancer patients were analyzed. POPPK data were pooled from 3 studies: 1) a phase 1 study in non-small lung cancer patients with intravenous (IV) doses of 150-325 mg/m^2, 2) a phase 1 study in advanced cancer patients with IV doses of 80-140 mg/m^2 plus a taxane, and 3) a phase 2 study in patients with relapsed or refractory PTCL at a dose of 30 mg/m^2/week IV. POP PK data for each diastereomer were analyzed using nonlinear mixed effects modeling with first-order conditional estimation. Model qualification included non-parametric bootstrap and predictive checks. Results: The POP PK database was comprised of 154 patients (94 males & 60 females, ages 21-85 years, weights 42.9-158 kg), contributing 1176 PDX-10a and 1173 PDX-10b plasma concentrations.
Where [6] appears, read: Homo sapiens, NCI-H460, NCI-H460 (lung), 3 h treatment, 72 h recovery, MTS.
Setting [7] is: Homo sapiens, NCI-H460, NCI-H460 repeat assay.
The mark [8] stands for this setting: both sexes, Day 1, 0.7 mg/kg, range of the mean for males and females and for PDX-10a and PDX-10b, read-out: CLtot.
The mark [9] stands for this setting: both sexes, Day 1, 0.7 mg/kg, range of the mean for males and females and for PDX-10a and PDX-10b, read-out: Vdss.
The mark [10] stands for this setting: both sexes, Day 1, 0.7 mg/kg, range of the mean for males and females and for PDX-10a and PDX-10b.
[11] abbreviates: both sexes, Day 1, calculated using average BW 8.5 kg, read-out: Vdss relative to BW.
[12] abbreviates: both sexes, Day 281, 0.7 mg/kg, range of the mean for males and females and for PDX-10a and PDX-10b, read-out: CLtot.
Setting [13] is: both sexes, Day 281, 0.7 mg/kg, range of the mean for males and females and for PDX-10a and PDX-10b, read-out: Vdss.
[14] abbreviates: both sexes, Day 281, 0.7 mg/kg, range of the mean for males and females and for PDX-10a and PDX-10b.
Setting [15] is: Day 1, calculated using average BW 8.5 kg, read-out: CLtot relative to BW.

A word on the IC50: it is the concentration that gives 50% inhibition. Low values mean higher potency, high ones lower potency. On to `C#CC[C@@H](Cc1cnc2nc(N)nc(N)c2n1)c1ccc(C(=O)N[C@@H](CCC(=O)O)C(=O)O)cc1` (single isomer, unassigned) [PDX-10a], for which the IC50 in series [1] was 11.9 nM; in series [2] (setting [6]), 289 nM; in series [2] (setting [7]) it was 169 nM; in series [2] (NCI-H460 repeat assay), 169 nM. For the same molecule, the clearance was 34 to 81 mL/min in series [3] (setting [8]), 58 to 95 mL/min in series [3] (setting [12]) and 4 to 10 mL/min/kg in series [3] (setting [15]). The values for the Vd in series [3] (setting [9]), in series [3] (setting [11]) and in series [3] (setting [13]) were 8 to 16 L, 0.9 to 1.9 L/kg and 15 to 24 L, respectively. Also, the half-life in series [3] (setting [10]) lay in the range of 4.4 to 4.9 h; in series [3] (setting [14]), 4.7 to 5.5 h. In the series with cancer cell lines, the “cytotoxic activity relative to racemate and other diastereomer” value is reported as “increased activity relative to racemic PDX and/or PDX-10b”. Also, the “xenograft activity relative to racemate and other diastereomer” value with tumor xenotransplant is listed as “increased activity relative to racemic PDX and/or PDX-10b”. In addition, in series [4], the “antiarthritic activity relative to racemate and other diastereomer” value was “increased activity relative to racemic PDX and/or PDX-10b”. For the same molecule, the “1st inter-CMT CL, POP PK parameter estimate” value in series [5] is 6.97 L/h. Also, the “2nd inter-CMT CL, POP PK parameter estimate” value in series [5] is listed as 1.43 L/h. Moreover, the “clearance (CL), POP PK parameter estimate” value in series [5] is 35.0 L/h. Moreover, in series [5], the “volume for CMT 1, POP PK parameter estimate” value is on record as 11.0 L. The “volume for CMT 2, POP PK parameter estimate” value in series [5] is given as 9.71 L. In addition, in series [5], the “volume for CMT 3, POP PK parameter estimate” value is given as 50.6 L.
For `C#CC[C@H](Cc1cnc2nc(N)nc(N)c2n1)c1ccc(C(=O)N[C@@H](CCC(=O)O)C(=O)O)cc1` (single isomer, unassigned) [PDX-10b], the IC50 in series [1] amounted to 26.1 nM; in series [2] (setting [6]), 45.8 nM; in series [2] (setting [7]), 46.2 nM. Further, the results for the clearance in series [3] (setting [8]), in series [3] (setting [12]) and in series [3] (setting [15]) were 34 to 81 mL/min, 58 to 95 mL/min and 4 to 10 mL/min/kg, respectively. The Vd is 8 to 16 L in series [3] (setting [9]), 0.9 to 1.9 L/kg in series [3] (setting [11]) and 15 to 24 L in series [3] (setting [13]). Also, the half-life in series [3] (setting [10]) was 4.4 to 4.9 h; in series [3] (setting [14]), 4.7 to 5.5 h. The “higher clearance of PDX-10b compared with PDX-10a” value in series [3] (dogs) is recorded as 2 fold. Besides, in the series with cancer cell lines, the “cytotoxic activity relative to racemate and other diastereomer” value is “increased activity relative to racemic PDX and/or PDX-10a”. For the same molecule, in the series on tumor xenotransplant, the “xenograft activity relative to racemate and other diastereomer” value was “increased activity relative to racemic PDX and/or PDX-10a”. In addition, in series [4], the “antiarthritic activity relative to racemate and other diastereomer” value is on record as “increased activity relative to racemic PDX and/or PDX-10a”. Further, the “1st inter-CMT CL, POP PK parameter estimate” value in series [5] was 5.53 L/h. For the same molecule, the “2nd inter-CMT CL, POP PK parameter estimate” value in series [5] is reported as 0.601 L/h. Moreover, the “clearance (CL), POP PK parameter estimate” value in series [5] was 17.2 L/h. In series [5], the “volume for CMT 1, POP PK parameter estimate” value is 8.89 L. Further, in series [5], the “volume for CMT 2, POP PK parameter estimate” value is 6.79 L. Also, the “volume for CMT 3, POP PK parameter estimate” value in series [5] is listed as 12.65 L.
